Laboratory results taken from article PMC4710668, “Bioactivation of food genotoxicants 5-hydroxymethylfurfural and furfuryl alcohol by sulfotransferases from human, mouse and rat: a comparative study” (Archives of Toxicology, 2014).

System: rSult2a4
Assay: FFA sulfoconjugation assay (N6-MF-A formation with adenosine as scavenger)
Assay type: biochemical, rat
Procedure: Cytosolic fractions containing individual SULT forms were prepared from transgenic S. typhimurium TA1538. Table S1 in the Supplementary Material provides a summary of the thirty SULTs used in the current study together with references describing the cloning of the respective S. typhimurium TA1538 strains. The expressed SULT forms are denoted with the prefixes h, m and r for human, mouse and rat enzymes, respectively. Bacteria were grown in Luria Broth medium containing ampicillin (100 µg/ml) by stirring for 8 h at 200 revolutions/min at 37 °C. The bacterial suspensions were centrifuged at 5,000 g for 10 min. The sediments were washed twice with 25 ml of 10 mM potassium phosphate buffer (pH 7.4)/50 mM potassium chloride (KCP buffer) and centrifuged again. The pellets were taken up in 800 µl KCP buffer and sonicated thrice for 15 s with 30 s pauses in between. The soluble fraction was attained by centrifuging for 1 h at 100,000 g. The supernatants (in the following termed cytosolic preparations) were frozen at −80 °C. The protein concentrations were determined according to a bicinchoninic acid (BCA) assay protocol. […]
The ribonucleoside adduct N ^6-((furan-2-yl)methyl)-adenosine (N ^6-MF-A) was analyzed by isotope-dilution UPLC-MS/MS with the same system described above using a HSS T3 column (1.8 µm, 2.1 × 100 mm, Waters). […] The fragmentations of N ^6-MF-A into the aglycone cation [N ^6-((furan-2-yl)methyl)-adenine-H]^+ (m/z = 348.1 → 216.1), the cleavage of the 2-methylfuranyl cation (m/z = 348.1 → 81.0) and the release of [N ^6-methyl-adenine-H]^+ (m/z = 348.1 → 148.0) were monitored together with the corresponding fragmentations of the isotope-labeled internal standard [^15N5]N ^6-MF-A for the formation of the aglycone (m/z = 353.1 → 221.1), the 2-methylfuran cation (m/z = 353.1 → 81.0) and ^15N5-labeled N ^6-methyl-adenine (m/z = 353.1 → 153.0). The N ^6-MF-A content of the incubation mixture was calculated from the ratio of peak areas resulting from the total ion current of all three MRM signals of the analyte. […]

With `OCc1ccco1` [FFA, furfuryl alcohol] the “Rate of N6-MF-A formation” value (0.1 mM FFA) was under 18 fmol N ^6-MF-A/mg/min, the “Rate of N6-MF-A formation” value (1 mM FFA) was under 20 fmol N ^6-MF-A/mg/min and the “Rate of N6-MF-A formation” value (10 mM FFA) was under 44 fmol N ^6-MF-A/mg/min.
